In patent publication US20230141603A1, “BENZODIAZEPINE DERIVATIVES AS GABA A GAMMA1 PAM” (Hoffmann-La Roche Inc., priority 2021, published 2023):

Target: T1, h-GABAA α1β3γ2 (Homo sapiens, UniProt P14867+P18507)
T1 construct: expressed in transfected cells; host or cells: HEK293F cells, membranes
Assay: Radioligand binding assay, [3H]Flumazenil competition, HEK293F membranes
Conditions: for γ2/γ1 Selectivity Ratio: Ki α1β3γ2 (nM)/Ki α2β2γ1 (nM); for LogSel: Log[Ki α1β3γ2 (nM)/Ki α2β2γ1 (nM)]
Experimental: The affinity of compounds at GABAA γ2 subunit-containing receptors was measured by competition for [^3H]Flumazenil (81.1 Ci/mmol; Roche) binding to HEK293F cells expressing human (transiently transfected) receptors of composition α1β3γ2.
Harvested pellets from HEK293F cells expressing the different GABAA γ2 receptor subtypes were resuspended in Mannitol Buffer pH 7.2-7.4 and processed as described above for the cells expressing the GABAA γ1 subunit-containing receptors.
Assays were incubated to equilibrium for 1 hour at 4° C. and harvested onto GF/C uni-filters (Packard) by filtration using a Packard harvester and washing with ice-cold wash buffer (50 mM Tris; pH 7.5). After drying, filter-retained radioactivity was detected by liquid scintillation counting. Ki values were calculated using Excel-Fit (Microsoft) and are the means of two determinations.

Structure (SMILES)	Ki	γ2/γ1 Selectivity Ratio (Table 1)	LogSel (Table 1)	γ2/γ1 Selectivity Ratio (Table 3)	LogSel (Table 3)
Fc1cccnc1C1=NCc2nncn2-c2ccc(Br)c(Cl)c21 [Example 29, 8-bromo-7-chloro-6-(3-fluoro-2-pyridyl)-4H-[1,2,4]triazolo[4,3-a][1,4]benzodiazepine]	0.789 µM	16.6	1.22		
OCc1nnc2n1-c1ccc(Br)c(Cl)c1C(c1c(F)cccc1F)=NC2 [Example 33, [8-bromo-7-chloro-6-(2,6-difluorophenyl)-4H-[1,2,4]triazolo[4,3-a][1,4]benzodiazepin-1-yl]methanol]	0.232 µM	18.2	1.26		
Fc1cccc(F)c1C1=NCc2nncn2-c2ccc(I)c(Cl)c21 [Example 34, 7-chloro-6-(2,6-difluorophenyl)-8-iodo-4H-[1,2,4]triazolo[4,3-a][1,4]benzodiazepine]	0.161 µM	15.9	1.20		
Cl.NCc1nnc2n1-c1ccc(Br)c(Cl)c1C(c1c(F)cccc1F)=NC2 [Example 36, [8-bromo-7-chloro-6-(2,6-difluorophenyl)-4H-[1,2,4]triazolo[4,3-a][1,4]benzodiazepin-1-yl]methanamine hydrochloride]	0.18 µM	21.2	1.33		
Fc1cccc(F)c1C1=NCc2nncn2-c2ccc(C(F)(F)F)c(Cl)c21 [Example 37, 7-chloro-6-(2,6-difluorophenyl)-8-(trifluoromethyl)-4H-[1,2,4]triazolo[4,3-a][1,4]benzodiazepine]	1.18 µM	28.5	1.45		
Fc1cccc(F)c1C1=NCc2nnc(-c3cccnn3)n2-c2ccc(C(F)(F)F)c(Cl)c21 [Example 38, 7-chloro-6-(2,6-difluorophenyl)-1-pyridazin-3-yl-8-(trifluoromethyl)-4H-[1,2,4]triazolo[4,3-a][1,4]benzodiazepine]	1.43 µM	113.4	2.05		
Fc1cccc(F)c1C1=NCc2nnc(-c3cccnn3)n2-c2ccc(I)c(Cl)c21 [Example 39, 7-chloro-6-(2,6-difluorophenyl)-8-iodo-1-pyridazin-3-yl-4H-[1,2,4]triazolo[4,3-a][1,4]benzodiazepine]	0.36 µM	85.8	1.93		
Cc1nnc2n1-c1ccc(C(F)(F)F)c(Cl)c1C(c1c(F)cccc1F)=NC2 [Example 40, 7-chloro-6-(2,6-difluorophenyl)-1-methyl-8-(trifluoromethyl)-4H-[1,2,4]triazolo[4,3-a][1,4]benzodiazepine]	1.01 µM	37.5	1.57	37.5	1.6
Cc1nnc2n1-c1ccc(I)c(Cl)c1C(c1c(F)cccc1F)=NC2 [Example 41, 7-chloro-6-(2,6-difluorophenyl)-8-iodo-1-methyl-4H-[1,2,4]triazolo[4,3-a][1,4]benzodiazepine]	0.121 µM	21.9	1.34		
Fc1cccc(F)c1C1=NCc2nnc(-c3cccnn3)n2-c2ccc(Br)c(Br)c21 [Example 42, 7,8-dibromo-6-(2,6-difluorophenyl)-1-pyridazin-3-yl-4H-[1,2,4]triazolo[4,3-a][1,4]benzodiazepine]	0.243 µM	44.2	1.65		
Fc1cccc(F)c1C1=NCc2nnc(-c3ccncn3)n2-c2ccc(Br)c(Br)c21 [Example 43, 7,8-dibromo-6-(2,6-difluorophenyl)-1-pyrimidin-4-yl-4H-[1,2,4]triazolo[4,3-a][1,4]benzodiazepine]	0.51 µM	88.5	1.95		
Clc1cccnc1C1=NCc2nnc(-c3ccncn3)n2-c2ccc(Br)c(Cl)c21 [Example 44, 8-bromo-7-chloro-6-(3-chloro-2-pyridyl)-1-pyrimidin-4-yl-4H-[1,2,4]triazolo[4,3-a][1,4]benzodiazepine]	0.276 µM	28.6	1.46		
Fc1cccnc1C1=NCc2nnc(-c3cccnn3)n2-c2ccc(Br)c(Cl)c21 [Example 45, 8-bromo-7-chloro-6-(3-fluoro-2-pyridyl)-1-pyridazin-3-yl-4H-[1,2,4]triazolo[4,3-a][1,4]benzodiazepine]	1.22 µM	77.7	1.89		
Fc1cccnc1C1=NCc2nnc(-c3ccncn3)n2-c2ccc(Br)c(Cl)c21 [Example 46, 8-bromo-7-chloro-6-(3-fluoro-2-pyridyl)-1-pyrimidin-4-yl-4H-[1,2,4]triazolo[4,3-a][1,4]benzodiazepine]	1.16 µM	45.8	1.66		
Clc1cccnc1C1=NCc2nnc(-c3cccnn3)n2-c2ccc(Br)c(Cl)c21 [Example 47, 8-bromo-7-chloro-6-(3-chloro-2-pyridyl)-1-pyridazin-3-yl-4H-[1,2,4]triazolo[4,3-a][1,4]benzodiazepine]	0.222 µM	14.0	1.15		
Cc1ccc2c(c1Cl)C(c1c(F)cccc1F)=NCc1nnc(-c3cccnn3)n1-2 [Example 48, 7-chloro-6-(2,6-difluorophenyl)-8-methyl-1-pyridazin-3-yl-4H-[1,2,4]triazolo[4,3-a][1,4]benzodiazepine]	0.952 µM	114.1	2.06		
Cc1ccc2c(c1Cl)C(c1c(F)cccc1F)=NCc1nnc(-c3ccncn3)n1-2 [Example 49, 7-chloro-6-(2,6-difluorophenyl)-8-methyl-1-pyrimidin-4-yl-4H-[1,2,4]triazolo[4,3-a][1,4]benzodiazepine]	1.47 µM	104.3	2.02		
Cc1nnc2n1-c1ccc(Br)c(Cl)c1C(c1c(F)cccc1Cl)=NC2 [Example 50, 8-bromo-7-chloro-6-(2-chloro-6-fluoro-phenyl)-1-methyl-4H-[1,2,4]triazolo[4,3-a][1,4]benzodiazepine]	0.0738 µM	15.8	1.20		
Fc1cccnc1C1=NCc2nnc(-c3cccnn3)n2-c2ccc(Cl)c(Cl)c21 [Example 54, 7,8-dichloro-6-(3-fluoro-2-pyridyl)-1-pyridazin-3-yl-4H-[1,2,4]triazolo[4,3-a][1,4]benzodiazepine]	2.07 µM	68.7	1.84		
Fc1cccnc1C1=NCc2nnc(-c3ccncn3)n2-c2ccc(Cl)c(Cl)c21 [Example 55, 7,8-dichloro-6-(3-fluoro-2-pyridyl)-1-pyrimidin-4-yl-4H-[1,2,4]triazolo[4,3-a][1,4]benzodiazepine]	1.72 µM	92.9	1.97		
COc1ccc2c(c1Cl)C(c1c(F)cccc1F)=NCc1nnc(-c3cccnn3)n1-2 [Example 57, 7-chloro-6-(2,6-difluorophenyl)-8-methoxy-1-pyridazin-3-yl-4H-[1,2,4]triazolo[4,3-a][1,4]benzodiazepine]	2.11 µM	36.5	1.56		
Cn1cc(-c2nnc3n2-c2ccc(Cl)c(Cl)c2C(c2ncccc2F)=NC3)cn1 [Example 58, 7,8-dichloro-6-(3-fluoro-2-pyridyl)-1-(1-methylpyrazol-4-yl)-4H-[1,2,4]triazolo[4,3-a][1,4]benzodiazepine]	1.3 µM	39.4	1.60		
O=c1[nH]nc2n1-c1ccc(Cl)c(Cl)c1C(c1ncccc1F)=NC2 [Example 59, 7,8-dichloro-6-(3-fluoro-2-pyridyl)-2,4-dihydro-[1,2,4]triazolo[4,3-a][1,4]benzodiazepin-1-one]	0.577 µM	21.9	1.34		
Fc1cccnc1C1=NCc2nncn2-c2ccc(Cl)c(Cl)c21 [Example 60, 7,8-dichloro-6-(3-fluoro-2-pyridyl)-4H-[1,2,4]triazolo[4,3-a][1,4]benzodiazepine]	1.11 µM	28.6	1.46		
COc1ccc2c(c1Cl)C(c1c(F)cccc1F)=NCc1nnc(-c3ccncn3)n1-2 [Example 61, 7-chloro-6-(2,6-difluorophenyl)-8-methoxy-1-pyrimidin-4-yl-4H-[1,2,4]triazolo[4,3-a][1,4]benzodiazepine]	2.14 µM	27.6	1.44		
COc1ccc2c(c1Cl)C(c1c(F)cccc1F)=NCc1nnc(-c3cccnc3)n1-2 [Example 62, 7-chloro-6-(2,6-difluorophenyl)-8-methoxy-1-(3-pyridyl)-4H-[1,2,4]triazolo[4,3-a][1,4]benzodiazepine]	2.15 µM	38.9	1.59		
Fc1cccnc1C1=NCc2nnc(C3CC3)n2-c2ccc(Cl)c(Cl)c21 [Example 65, 7,8-dichloro-1-cyclopropyl-6-(3-fluoro-2-pyridyl)-4H-[1,2,4]triazolo[4,3-a][1,4]benzodiazepine]	1.56 µM	24.0	1.38		
Fc1cccnc1C1=NCc2nnc(-c3ccncn3)n2-c2ccc(C(F)(F)F)c(Cl)c21 [Example 69, 7-chloro-6-(3-fluoro-2-pyridyl)-1-pyrimidin-4-yl-8-(trifluoromethyl)-4H-[1,2,4]triazolo[4,3-a][1,4]benzodiazepine]	10.6 µM	166.3	2.22		
